The structures appear in SMILES notation.

The nature of this data set: hydrolysis of the compound into its active (dissolved in water, followed by NMR).

As to `CN(C)CCc1c[nH]c2cccc(OP(=O)(O)O)c12` [Psilocybin], the half-life is below 365 days.

What is called half-life is the time needed for the level to fall by half in the phase considered.

These data come from US20230241027A1, “DIALKYL T[…] THEIR […] USES” (CAAMTECH, INC., priority 2020, published 2023).
